Assay type in all cases: functional, cell-based
Assay [1] concerns P388. The assay is described as follows: Cytotoxicity against vincristine-resistant mouse P388 cells.
The test system of assay [2] is P388. In words: Cytotoxicity against vincristine-resistant mouse P388 cells in presence of vincristine.
For assay [3], the system named is P388. In words: Cytotoxicity against vincristine-sensitive mouse P388 cells.

What is called IC50 is the midpoint of a concentration-inhibition curve.

≈ marks a conversion by molar mass, not a printed value.

With `CCCC(=O)CCC1=C(O)C(=O)c2cc(O)c(OC)c(O)c2C1=O`, the IC50 with P388 [1] is > 50 µg/mL; in the assay on P388 [2], 13.8 µg/mL; with P388 [3], > 50 µg/mL.
As to `CCCC(=O)CCC1=C(O)C(=O)c2cc(O)c(O)c(O)c2C1=O`, the IC50 with P388 [1] was found to be 14 µg/mL (≈ 43.7 µM); in the assay on P388 [2], 12.6 µg/mL; in the assay with P388 [3], 12.1 µg/mL (≈ 37.8 µM).
For `CCCC(=O)CCC1=C(O)C(=O)c2cc(OC)c(OC)c(O)c2C1=O` the same measures were > 50 µg/mL, > 50 µg/mL and > 50 µg/mL.

(Values after ChEMBL document CHEMBL1146559, “Dihydrolindbladiones, three new naphthoquinone pigments from a myxomycete Lindbladia tubulina” (J Nat Prod, 2003).)
